≈ marks a conversion by molar mass, not a printed value. Calls of active or inactive are those of the source. No cut-off for these calls is given here.
What was measured:
[1] = Antioxidant activity assessed as hydroxyl radical scavenging by resonance scattering method; type: functional
[2] = Antioxidant activity assessed as potassium ferricyanide reduction at 0.05 mg/ml after 20 min by spectrophotometric analysis; type: functional
[3] = Antioxidant activity assessed as reduction of Mo(6) in phophomolybdenum at 0.5 mg/ml after 150 min by spectrophotometric analysis; type: functional
[4] = system: Radical scavenging activity; experiment: Antioxidant activity assessed as DPPH radical scavenging at 0.5 mg/ml measured at 50 min by spectrophotometric analysis relative to control; type: functional
[5] = Antioxidant activity assessed as potassium ferricyanide reduction at 0.5 mg/ml after 20 min by spectrophotometric analysis; type: functional
[6] = system: Radical scavenging activity; experiment: Antioxidant activity assessed as DPPH radical scavenging at 0.02 mg/ml measured at 50 min by spectrophotometric analysis relative to control; type: functional
[7] = system: Radical scavenging activity; experiment: Antioxidant activity assessed as DPPH radical scavenging at 0.05 mg/ml measured at 50 min by spectrophotometric analysis relative to control; type: functional
[8] = Antioxidant activity assessed as reduction of Mo(6) in phophomolybdenum at 0.1 mg/ml after 150 min by spectrophotometric analysis; type: functional
HT-29 [9] = experiment: Induction of Homo sapiens (human) HT-29 cell proliferation assessed as [3H]hypoxanthine incorporation at 0.25 to 2 mg/ml incubated for 18 hr prior to [3H]hypoxanthine addition measured after 4 to 6 hr; type: cell-based
HT-29 [10] = experiment: Growth inhibition of Homo sapiens (human) HT-29 cells assessed as inhibition of [3H]hypoxanthine incorporation at higher concentration incubated for 18 hr prior to [3H]hypoxanthine addition measured after 4 to 6 hr; type: functional, cell-based
[11] = system: Radical scavenging activity; experiment: Antioxidant activity assessed as DPPH radical scavenging at 0.08 mg/ml measured at 50 min by spectrophotometric analysis relative to control; type: functional
[12] = system: Radical scavenging activity; experiment: Antioxidant activity assessed as DPPH radical scavenging at 0.02 to 0.1 mg/ml measured within 10 min by spectrophotometric analysis; type: functional

SMILES	IC50 [1] [µg/mL]	Activity [2]	Activity [3]	Activity [4] [%]	Activity [5]	Activity [6] [%]	Activity [7] [%]	Activity [8]	Activity (HT-29 [9])	growth inhibition (GI) (HT-29 [10])	Activity [11] [%]	Activity [12]
Cc1cc(C(C)(C)C)c(O)c(C(C)(C)C)c1 [BUTYLATED HYDROXYTOLUENE]	2.883 (≈ 13.1 µM)	Active	Active	47.6	Active							
O=c1ccc2cc(O)c(O)cc2o1 [ESCULETIN]	0.091 (≈ 0.511 µM)	Active			Active	28.1	59.9	Active	Toxic	Dose-dependent effect	79.7	Active
